From patent US20250195596A1, “COMPOSITION FOR PREVENTING OR TREATING RETINAL DISEASE, CONTAINING CENTELLA ASIATICA EXTRACT” (GENENCELL INC., priority 2018, published 2025)

Test system: ARPE-19 cells
Assay: Cell protection from oxidative stress caused by A2E (MTT)
Assay type: cell-based
Details: ARPE-19, A2E accumulated 3 days, 30 μM, 48 hours, UV 5 minutes; in % (unit assumed)
Description: To determine the effect of inhibiting macular degeneration, the cell death inhibitory effect of A2E was measured. As test cells, ARPE-19 cells, which are retinal pigment epithelial cells, were used, and the medium, medium composition, and experimental conditions were the same as in Experimental Example 1. ARPE-19 cells were dispensed into a 24-well plate at a concentration of 3×10^4 cells/well and cultured for 24 hours, and then A2E was accumulated at a concentration of 3 µM for 3 days. In order to measure the effect of protecting cells from oxidative stress caused by A2E, the cells were treated with 25 μg/mL, 50 μg/mL, and 100 μg/mL of the 50% alcohol extract of Centella asiatica, and as a positive control, the cells were treated with 30 μM of lutein, which is known to have an inhibitory effect on macular degeneration, and cultured for 48 hours, and after 48 hours, the cells were irradiated with ultraviolet rays using a UV lamp for 5 minutes. The cell growth rate was measured at an absorbance of 570 nm using an MTT reagent, and the absorbance of each test solution was measured and compared with a control not treated with A2E.

CC1=C[C@H](O)CC(C)(C)[C@H]1/C=C/C(C)=C/C=C/C(C)=C/C=C/C=C(C)/C=C/C=C(C)/C=C/C1=C(C)C[C@@H](O)CC1(C)C [Lutein, lutein]
cell growth rate compared with a control not treated with A2E: 71.5 ± 8.22
